We go through 1 compound from patent US20250044294A1, “COMPOSITION AND METHOD OF TREATING A CANCER THROUGH AFFECTING MEMBRANE RECEPTORS OF CANCER CELLS AND THEIR DERIVED EXTRACELLULAR VESICLES” (National Yang Ming Chiao Tung University, priority 2023, published 2025).

Where two headings read alike, the source gives them in different places.

The target in test [1] is T1, EGFR-MET protein-protein interactions (Homo sapiens, UniProt P00533+P08581).
T1 construct: endogenous in cells; host or cells: HSC3 cells
T1 sequence (P00533 25-1210): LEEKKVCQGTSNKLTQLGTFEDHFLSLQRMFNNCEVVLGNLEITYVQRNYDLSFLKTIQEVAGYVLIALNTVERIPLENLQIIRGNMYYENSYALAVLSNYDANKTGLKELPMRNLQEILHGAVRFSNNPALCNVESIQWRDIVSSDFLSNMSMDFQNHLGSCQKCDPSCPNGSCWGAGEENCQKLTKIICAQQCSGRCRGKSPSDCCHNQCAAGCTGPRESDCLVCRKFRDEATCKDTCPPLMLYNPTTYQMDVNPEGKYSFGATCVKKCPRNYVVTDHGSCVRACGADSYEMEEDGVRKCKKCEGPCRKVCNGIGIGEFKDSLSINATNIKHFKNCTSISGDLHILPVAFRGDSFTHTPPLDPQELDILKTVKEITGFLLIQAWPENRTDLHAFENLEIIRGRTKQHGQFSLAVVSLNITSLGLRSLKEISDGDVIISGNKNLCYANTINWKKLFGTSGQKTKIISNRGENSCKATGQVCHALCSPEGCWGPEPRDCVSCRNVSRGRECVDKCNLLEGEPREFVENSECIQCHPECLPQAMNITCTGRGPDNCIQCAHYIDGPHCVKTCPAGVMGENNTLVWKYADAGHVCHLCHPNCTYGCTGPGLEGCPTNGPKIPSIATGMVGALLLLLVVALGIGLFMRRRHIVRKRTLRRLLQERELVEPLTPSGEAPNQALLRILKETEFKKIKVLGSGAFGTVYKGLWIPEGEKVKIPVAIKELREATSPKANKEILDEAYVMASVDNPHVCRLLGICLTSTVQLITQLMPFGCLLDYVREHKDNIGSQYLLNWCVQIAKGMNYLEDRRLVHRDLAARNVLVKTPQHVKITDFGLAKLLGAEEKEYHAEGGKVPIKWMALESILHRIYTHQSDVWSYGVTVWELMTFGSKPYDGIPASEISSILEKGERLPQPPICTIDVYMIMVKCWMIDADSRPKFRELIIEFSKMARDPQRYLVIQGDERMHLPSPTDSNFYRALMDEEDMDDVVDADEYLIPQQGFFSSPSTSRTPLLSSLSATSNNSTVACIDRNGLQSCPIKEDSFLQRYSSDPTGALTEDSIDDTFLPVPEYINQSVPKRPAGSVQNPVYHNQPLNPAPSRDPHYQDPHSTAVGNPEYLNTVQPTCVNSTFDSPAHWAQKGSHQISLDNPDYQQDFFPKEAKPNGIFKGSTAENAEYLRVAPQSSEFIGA
T1 sequence (P08581 308-1390 limits assumed): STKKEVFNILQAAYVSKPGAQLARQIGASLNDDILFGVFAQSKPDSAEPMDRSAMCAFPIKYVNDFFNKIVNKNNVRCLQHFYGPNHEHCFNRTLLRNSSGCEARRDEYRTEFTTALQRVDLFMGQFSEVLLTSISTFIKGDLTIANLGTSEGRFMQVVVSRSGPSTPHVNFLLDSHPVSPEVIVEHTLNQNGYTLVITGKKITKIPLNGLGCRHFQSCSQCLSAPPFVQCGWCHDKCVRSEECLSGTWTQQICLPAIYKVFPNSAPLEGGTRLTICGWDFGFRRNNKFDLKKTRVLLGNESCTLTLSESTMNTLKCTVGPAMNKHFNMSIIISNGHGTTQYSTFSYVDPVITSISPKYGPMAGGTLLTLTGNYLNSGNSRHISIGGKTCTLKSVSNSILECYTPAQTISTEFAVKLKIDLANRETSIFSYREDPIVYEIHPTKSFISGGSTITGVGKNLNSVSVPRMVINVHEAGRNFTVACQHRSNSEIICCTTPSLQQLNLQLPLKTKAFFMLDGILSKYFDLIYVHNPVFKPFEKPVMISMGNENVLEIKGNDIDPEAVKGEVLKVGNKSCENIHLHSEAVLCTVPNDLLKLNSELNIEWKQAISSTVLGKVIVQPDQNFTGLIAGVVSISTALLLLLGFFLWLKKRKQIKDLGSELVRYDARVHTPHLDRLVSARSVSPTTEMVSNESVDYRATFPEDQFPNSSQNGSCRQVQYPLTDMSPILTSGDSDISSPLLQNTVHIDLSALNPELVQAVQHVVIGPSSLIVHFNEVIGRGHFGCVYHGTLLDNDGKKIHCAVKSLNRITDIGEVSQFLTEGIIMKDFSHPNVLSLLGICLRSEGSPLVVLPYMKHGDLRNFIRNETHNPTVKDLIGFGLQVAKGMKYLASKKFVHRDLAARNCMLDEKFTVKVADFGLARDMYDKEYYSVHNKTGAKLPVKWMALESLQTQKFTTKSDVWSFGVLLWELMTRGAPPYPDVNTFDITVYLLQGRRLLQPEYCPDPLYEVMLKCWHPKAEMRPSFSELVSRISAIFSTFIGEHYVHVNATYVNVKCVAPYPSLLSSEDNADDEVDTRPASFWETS
The class given is cell-based. The following applies: HSC3; pre-treatment 15 μM 30 min, then EGF 10 ng/mL 15 min.

Test [2] deals with AKT activation. Nature of the test: Western blotting of AKT activation in PDAC cells. The conditions noted are these: 20 μM, 6 hours. The test is classed as cell-based, human. As to the method: Cells or EVs were lysed in RIPA lysis buffer (containing 50 mM Tris-HCl, 1% NP-40, 150 mM NaCl, 0.1% SDS, 1 mM PMSF, 1 mM Na3VO4) with complete protease and […] (1:1000) (Sigma-Aldrich). The protein quantitation is analyzed by comparing to 2 mg/ml Bovine serum albumin (BSA). Prepare the cell sample with one-tenth of dilution and the EV sample without dilution. Next, prepare all sample to 30 ul then put 10 μl each well in 96-well plates. Protein concentrations were then determined using the BCA assay kit (Thermo, USA) according to the manufacturer's instructions. Then, the same amounts of protein lysates from cells and EVs were loaded onto 8-12% SDS polyacrylamide gels and subjected to electrophoresis at 80-100 V, followed by transferring the proteins to 0.22 or 0.45 μm poly-vinylidene fluoride membranes (Millipore). The membranes were blocked with 5% skimmed milk in […] (Tris-buffered saline containing Tween-20) for 1 h at room temperature and then washed 3 times (10 minutes for each time) with TBST (1M Tris-HCL pH7.5, NaCl, Tween 20 in ddH2O). After the step of washing, probed with antibodies specific for EV-enriched markers at […] overnight. […] The membrane was exposed using enhanced chemiluminescence reagents and analyzed using the Fujifilm LAS4000 luminescent image analysis system. […]
For orientation: In western blotting, separated proteins are transferred to a membrane and probed.

Test [3] addresses T2, EGFR-p-EGFR protein-protein interactions (Homo sapiens, UniProt P00533). Nature of the test: Proximity ligation assay in PDAC cells (BxPC-3). The class given is cell-based. Further details: endogenous in cells. The following applies: pre-treatment 15 μM 30 min, then EGF 10 ng/mL 15 min.
For another test, the system named is BEAS-2B and CL141 cells. The experiment in a line: Transwell cell migration with NSCLC-derived secretomes and EVs. The test is classed as cell-based, human.
For test [4], the system named is H6C7 cells and WI-38 cells. Nature of the test: Co-culture cell migration with PDAC-derived secretomes. The test is classed as cell-based, human. As to the method:
In the transwell migration assay, cells were seeded in upper chambers of Transwell plates (Transwell® Permeable Support, 6.5 mm insert, 24 well plate, 8.0 μm pore polyester membrane with sterile, Corning, #3464) in serum-free (SF) medium and seeded 5×10^4-1×10^5 cells per well, while lower chambers were added medium with 10% FBS as an attractant. Drugs were treated in both upper and lower chambers, and incubated on the 24-well plate at 37° C. for 16-24 hours. The cells were fix with 4% paraformaldehyde (PFA, SIGMA, #F8775) for 10 minutes and staining with 1% crystal violet (MERCK, 1 g Crystal violet powder dissolved in 75 ml ddH2O and 25 ml […] then filters by 0.45 μm filter) for 0.5 hours. After drying the insert completely, take at least 3 cell pictures randomly in every sample by microscope and count the number of cells by Image J.
To initiate this exploration, a transwell migration assay in vitro was performed to assess the migration ability of PDAC cells. […] To achieve this, a co-culture cell migration system was established to examine the behavioral changes in normal cells treated with PDAC-derived secretomes.
For the cell line selection, the H6C7 cell line, derived from normal human pancreatic duct epithelial (HPDE) cells and immortalized, was employed to investigate the interactions between PDAC cells and human pancreatic duct cells. This cell line serves as a valuable tool for studying the molecular and cellular interactions that occur between PDAC cells and their surrounding pancreatic ductal epithelial cells. Additionally, to simulate the lung tissue environment and validate PDAC cells with high metastatic potential to the lung, human lung fibroblasts known as WI-38 cells were chosen as a relative normal cell model. By utilizing this model, the interactions between PDAC cells and the lung microenvironment can be examined and assessed.

The subject of test [5] is 3R-4 and 3R-5-1 tumoroids. The experiment in a line: Protein expression in pancreatic cancer patient-derived tumoroids (western blotting, immunofluorescence). The class given is cell-based, human. The following applies: 72-hour treatment.
For a further test, the system named is BxPC-3 cell-derived EVs. The experiment in a line: NanoFCM analysis of EV subpopulations from BxPC-3 cells. The class given is cell-based, human. The procedure:
EV samples containing 3×10^9 particles were incubated with diluted antibodies (1:1000), including FITC-anti-CD9 antibodies, PE-anti-CD63 antibodies, and APC-anti-integrin β4 antibodies, for 30 minutes in a 37° C. water bath. Following the incubation period, an Amicon® Ultra Centrifugal Filter with a 100 kDa molecular weight cutoff (MWCO) was used and rinsed with 1× PBS buffer. The samples were centrifuged at 4000×g for 5 minutes, with the centrifugation process repeated three times. After centrifugation, the samples were retrieved and diluted 10-100 times for detecting the expression levels of EV surface proteins by NanoFCM. The results were analyzed using Kaluza Analysis Software.

In test [6] the test system is PDAC cells (BxPC-3, PANC-1, AsPC-1). The experiment in a line: Transwell migration assay of PDAC cells. The test is classed as cell-based, human. The following applies: compared to gemcitabine treatment.
For test [7], the target named is T2, EGFR-p-EGFR protein-protein interactions. The class given is cell-based. The arrangement: endogenous in cells; host or cells: HSC3 and SAS cells. The following applies: HSC3 and SAS; pre-treatment 15 μM 30 min, then EGF 10 ng/mL 15 min.
In test [8] the test system is AKT activation. Nature of the test: Western blotting of AKT activation in NSCLC cells (A549). The test is classed as cell-based, human. The following applies: 15 μM 30 min, pre-treatment and post-treatment, EGF 10 ng/mL 15 min.
Description: DMSO was used as a vehicle control. For EGF stimulation, cells were incubated with 10 ng/mL with continuous drugs treatment for 15 min at 37° C.
Cells or EVs were lysed in RIPA lysis buffer (containing 50 mM Tris-HCl, 1% NP-40, 150 mM NaCl, 0.1% SDS, 1 mM PMSF, 1 mM Na3VO4) with complete protease and protease inhibitor cocktail (1:1000) (Sigma-Aldrich). The protein quantitation is analyzed by comparing to 2 mg/ml Bovine serum albumin (BSA). Prepare the cell sample with one-tenth of dilution and the EV sample without dilution. Next, prepare all sample to 30 ul then put 10 μl each well in 96-well plates. Protein concentrations were then determined using the BCA assay kit (Thermo, USA) according to the manufacturer's instructions. Then, the same amounts of protein lysates from cells and EVs were loaded onto 8-12% SDS polyacrylamide gels and subjected to electrophoresis at 80-100 V, followed by transferring the proteins to 0.22 or 0.45 μm poly-vinylidene fluoride membranes (Millipore). The membranes were blocked with 5% skimmed milk in PBST (Tris-buffered saline containing Tween-20) for 1 h at room temperature and then washed 3 times (10 minutes for each time) with TBST (1M Tris-HCL pH7.5, NaCl, Tween 20 in ddH2O). […] The membrane was exposed using enhanced chemiluminescence reagents and analyzed using the Fujifilm LAS4000 luminescent image analysis system.
The subject of another test is integrin α6/β4. Nature of the test: Western blotting of integrin α6/β4 on PDAC-derived EVs. The class given is cell-based, human. The following applies: EVs derived from BxPC-3 and PANC-1 cells; short-term treatment.
Test [9] concerns the target T3, EGFR-HER2 protein-protein interactions (Homo sapiens, UniProt P00533+P04626).
T3 construct: endogenous in cells; host or cells: HSC3 and SAS cells
The test is classed as cell-based. The conditions noted are these: HSC3 and SAS; pre-treatment 15 μM 30 min, then EGF 10 ng/mL 15 min.

The subject of test [10] is integrin α6/β4 on BxPC-3-derived EVs. The experiment in a line: Laminin coating wound healing assay with BxPC-3-derived EVs. The conditions noted are these: laminin coating 1 μg/cm^2; EVs from PCP-treated BxPC-3 cells. The test is classed as cell-based, human. As to the method: The culture inserts (ibidi, #80209) was put on 6 well dishes (2 inserts for each well), irradiated UV for 20 minutes and cells were seeded into the well of the insert and incubating 24 hours. The insert was removed gently and washed twice with PBS to remove the old medium and cell and be observed the gap which was formed by the insert through the microscope and captured the picture of the gap at 0 hours. After I captured of the gap, different treatments were added and incubated for 16 hours. The result was observed by the microscope and quantified by Image J.
In this assay, H6C7 cells were seeded in the wound healing inserts with or without 1 μg/cm^2 laminin coating in the six-well plate. Once the cells were attached, the wound healing inserts were removed, and H6C7 cells were exposed to BxPC-3-derived EVs and PCP-treated BxPC-3 cell-derived EVs.

Another test has as its system BxPC-3 cells. Nature of the test: Laminin-induced cell proliferation (SRB). The test is classed as cell-based, human. The conditions noted are these: 48 hours.
Setting [11] is: 3R-4 tumoroids, western blotting.

T2 sequence (P00533 25-1210): as the sequence (P00533 25-1210) above

In the case of `CN1CCN(CCCN2c3ccccc3Sc3ccc(Cl)cc32)CC1` [PCP, Prochlorperazine], the EGFR-MET protein-protein interactions entry in [1] is recorded as “could suppress EGFR-MET protein-protein interactions”. The AKT activation entry with AKT activation [2] is “suppressed AKT activation”. In addition, the EGFR-p-EGFR protein-protein interactions result in test [3] is recorded as “could suppress”. Besides, the “migratory capability induced by NSCLC-derived secretomes” value with BEAS-2B and CL141 cells (BEAS-2B and CL141, secretomes from H441 cells) is “inhibitory effect”. Further, the “migratory capability induced by NSCLC-derived EVs” value in the test with BEAS-2B and CL141 cells (treated cells with NSCLC-derived EVs) is recorded as “could downregulate this increased migratory capability”. Moreover, the “migratory capability of WI-38 cells” value in test [4] (AsPC-1-derived secretomes) is “comparatively weaker effect”. The “migratory capability of WI-38 cells” value in test [4] (BxPC-3-derived secretomes) was “strongest inhibition”. In addition, the “migratory capability of WI-38 cells” value in test [4] (PANC-1-derived secretomes) was “least effect”. In addition, the “migratory behavior of H6C7 cells” value in [4] (co-culture with BxPC-3-derived secretomes) was “significantly suppressed”. The “expression levels of CD9 and integrin β4” value in test [5] (3R-4 and 3R-5-1 tumoroids, immunofluorescence) was “also inhibited the expression levels of CD9 and integrin β4”. Moreover, in [5] (setting [11]), the “expression levels of GPC1” value is “unchanged expression levels of GPC1” and the “expression levels of integrin α6/β4, CD9, EGFR, HER2, HER3” value was “inhibited the expression levels”. Besides, in the test on BxPC-3 cell-derived EVs, the “co-expression levels of CD9 and integrin β4 proteins on ITGB4+CD9+ EVs” value is “downregulated”; the “secretion of CD9-EVs” value was “significantly downregulated”; the “secretion of CD63-EVs” value is recorded as “upregulating”; the “secretion of ITGB4+CD9+ EVs” value was “significantly suppressed”. The “migration ability of PDAC cells” value in [6] is “significantly suppressed”. In addition, the EGFR-p-EGFR protein-protein interactions result in [7] was “could suppress EGFR-p-EGFR protein-protein interactions”. Besides, the AKT activation result with AKT activation [8] was “effectively suppressed AKT activation”. Also, in the test with integrin α6/β4, the “integrin α6/β4 protein expression on EVs” value is “inhibited integrin α6/β4 protein expression”. The EGFR-HER2 protein-protein interactions result in test [9] was “could suppress EGFR-HER2 protein-protein interactions”. In test [10], the “functional activity of integrin α6/β4 on EVs (migration of H6C7 cells)” value is “significantly inhibited”. Further, the “laminin-induced cell proliferation rate” value in the test with BxPC-3 cells (1 μg/cm^2 laminin) is on record as “reversed the increased cell proliferation rate”. Moreover, in the test with BxPC-3 cells (compared to the vehicle group), the “drug sensitivity to PCP after laminin binding” value is “significantly higher increase in drug sensitivity”.
